Reference: article PMC4698017 (Science (New York, N.Y.), 2015)
Where a chain is given by its changes, count along the chain named.

Assays:
[1] = biological target: T1, His-MBP-Sestrin2 (bacterially-produced Sestrin2) (Homo sapiens, UniProt P58004); assay: thermal shift assay, Sypro orange; assay type: binding; conditions: maximal shift
T1 sequence (P58004 1-480): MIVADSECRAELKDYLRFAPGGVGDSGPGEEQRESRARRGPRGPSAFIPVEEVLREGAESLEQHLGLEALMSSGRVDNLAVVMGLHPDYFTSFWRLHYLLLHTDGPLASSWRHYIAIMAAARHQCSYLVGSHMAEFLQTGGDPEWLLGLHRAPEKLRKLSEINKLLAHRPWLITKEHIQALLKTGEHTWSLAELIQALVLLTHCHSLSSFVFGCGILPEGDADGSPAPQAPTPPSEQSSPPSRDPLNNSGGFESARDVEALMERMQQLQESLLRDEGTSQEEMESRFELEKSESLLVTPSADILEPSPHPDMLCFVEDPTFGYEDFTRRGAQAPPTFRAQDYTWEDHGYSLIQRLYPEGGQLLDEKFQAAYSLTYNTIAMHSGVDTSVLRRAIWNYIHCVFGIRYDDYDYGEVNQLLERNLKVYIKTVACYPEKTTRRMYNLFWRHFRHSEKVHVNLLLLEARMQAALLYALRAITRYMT

Sestrin2 (FLAG-Sestrin2) [2] = biological target: T2, Sestrin2 (FLAG-Sestrin2) (Homo sapiens, UniProt P58004, E451A); assay: [3H]Leucine binding, FLAG immunoprecipitate on beads; conditions: labelled compound
T2 sequence (P58004 1-480 E451A): T1 sequence (P58004 1-480) with E451A

Sestrin3 = biological target: T3, Sestrin3 (Homo sapiens, UniProt P58005); assay: as above; conditions: labelled compound
T3 sequence (P58005 1-492): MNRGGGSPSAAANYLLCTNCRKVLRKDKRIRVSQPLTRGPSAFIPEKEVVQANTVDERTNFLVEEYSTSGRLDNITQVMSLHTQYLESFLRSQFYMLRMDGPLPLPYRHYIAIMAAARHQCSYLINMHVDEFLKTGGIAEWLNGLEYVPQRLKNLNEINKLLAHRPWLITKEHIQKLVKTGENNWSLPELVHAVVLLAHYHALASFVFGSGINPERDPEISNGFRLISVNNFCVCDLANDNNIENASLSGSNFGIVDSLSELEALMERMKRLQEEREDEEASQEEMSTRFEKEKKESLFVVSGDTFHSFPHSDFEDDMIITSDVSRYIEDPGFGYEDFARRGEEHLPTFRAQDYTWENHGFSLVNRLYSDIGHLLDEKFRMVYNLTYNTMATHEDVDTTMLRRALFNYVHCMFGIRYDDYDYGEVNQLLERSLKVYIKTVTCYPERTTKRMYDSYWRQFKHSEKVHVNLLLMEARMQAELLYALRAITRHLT

Sestrin1 (two isoforms) = biological target: T4, Sestrin1 (two isoforms) (Homo sapiens, UniProt Q9Y6P5); assay: as above; conditions: labelled compound
T4 sequence (Q9Y6P5 1-492): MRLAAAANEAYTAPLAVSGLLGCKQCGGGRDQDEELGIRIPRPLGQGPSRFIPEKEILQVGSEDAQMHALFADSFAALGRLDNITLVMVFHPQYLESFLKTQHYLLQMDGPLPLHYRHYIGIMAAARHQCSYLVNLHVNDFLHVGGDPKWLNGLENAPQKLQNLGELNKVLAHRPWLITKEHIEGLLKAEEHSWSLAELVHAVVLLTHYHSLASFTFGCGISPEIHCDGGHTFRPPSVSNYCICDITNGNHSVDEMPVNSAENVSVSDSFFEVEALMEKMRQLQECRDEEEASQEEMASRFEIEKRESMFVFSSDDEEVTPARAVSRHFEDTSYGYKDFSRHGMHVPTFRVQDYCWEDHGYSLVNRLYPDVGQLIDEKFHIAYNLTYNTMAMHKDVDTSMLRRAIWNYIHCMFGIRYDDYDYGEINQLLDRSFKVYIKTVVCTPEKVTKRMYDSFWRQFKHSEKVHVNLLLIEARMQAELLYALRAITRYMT

Sestrin2 (FLAG-Sestrin2) [3] = biological target: T5, Sestrin2 (FLAG-Sestrin2) (Homo sapiens, UniProt P58004, L261A); assay: as above; conditions: labelled compound
T5 sequence (P58004 1-480 L261A): T1 sequence (P58004 1-480) with L261A

Sestrin2 (FLAG-Sestrin2) [4] = biological target: T6, Sestrin2 (FLAG-Sestrin2) (Homo sapiens, UniProt P58004, S190W); assay: as above; conditions: labelled compound
T6 sequence (P58004 1-480 S190W): T1 sequence (P58004 1-480) with S190W

Sestrin2-GATOR2 complex = Sestrin2-GATOR2 complex (Homo sapiens, UniProt P58004); assay: disruption of immunopurified Sestrin2-GATOR2 complex, immunoblot; assay type: binding; conditions: 300 µM amino acid
Sestrin2-GATOR2 complex, sequence (Q96S15 whole entry partner, one chain of several): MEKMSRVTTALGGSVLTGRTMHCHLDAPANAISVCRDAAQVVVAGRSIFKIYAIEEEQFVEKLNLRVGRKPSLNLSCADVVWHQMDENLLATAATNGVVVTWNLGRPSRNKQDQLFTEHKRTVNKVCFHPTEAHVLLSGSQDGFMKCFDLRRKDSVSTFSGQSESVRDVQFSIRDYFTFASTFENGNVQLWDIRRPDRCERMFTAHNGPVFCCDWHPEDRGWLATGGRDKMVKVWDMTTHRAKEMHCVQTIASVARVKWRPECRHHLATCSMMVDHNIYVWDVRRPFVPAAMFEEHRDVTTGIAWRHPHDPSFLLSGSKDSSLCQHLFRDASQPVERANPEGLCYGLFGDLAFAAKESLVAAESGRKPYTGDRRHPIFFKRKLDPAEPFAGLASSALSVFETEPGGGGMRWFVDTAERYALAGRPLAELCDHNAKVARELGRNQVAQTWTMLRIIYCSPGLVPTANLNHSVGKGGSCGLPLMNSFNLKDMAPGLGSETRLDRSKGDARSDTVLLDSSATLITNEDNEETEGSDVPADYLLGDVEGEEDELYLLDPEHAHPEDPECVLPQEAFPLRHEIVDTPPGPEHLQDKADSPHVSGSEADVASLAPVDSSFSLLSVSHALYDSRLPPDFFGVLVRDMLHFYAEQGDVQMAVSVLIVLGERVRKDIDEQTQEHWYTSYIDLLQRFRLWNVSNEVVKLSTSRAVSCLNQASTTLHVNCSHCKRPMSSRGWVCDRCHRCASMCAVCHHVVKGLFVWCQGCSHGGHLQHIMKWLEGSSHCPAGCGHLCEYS
Sestrin2-GATOR2 complex, sequence (Q9NXC5 whole entry partner, one chain of several): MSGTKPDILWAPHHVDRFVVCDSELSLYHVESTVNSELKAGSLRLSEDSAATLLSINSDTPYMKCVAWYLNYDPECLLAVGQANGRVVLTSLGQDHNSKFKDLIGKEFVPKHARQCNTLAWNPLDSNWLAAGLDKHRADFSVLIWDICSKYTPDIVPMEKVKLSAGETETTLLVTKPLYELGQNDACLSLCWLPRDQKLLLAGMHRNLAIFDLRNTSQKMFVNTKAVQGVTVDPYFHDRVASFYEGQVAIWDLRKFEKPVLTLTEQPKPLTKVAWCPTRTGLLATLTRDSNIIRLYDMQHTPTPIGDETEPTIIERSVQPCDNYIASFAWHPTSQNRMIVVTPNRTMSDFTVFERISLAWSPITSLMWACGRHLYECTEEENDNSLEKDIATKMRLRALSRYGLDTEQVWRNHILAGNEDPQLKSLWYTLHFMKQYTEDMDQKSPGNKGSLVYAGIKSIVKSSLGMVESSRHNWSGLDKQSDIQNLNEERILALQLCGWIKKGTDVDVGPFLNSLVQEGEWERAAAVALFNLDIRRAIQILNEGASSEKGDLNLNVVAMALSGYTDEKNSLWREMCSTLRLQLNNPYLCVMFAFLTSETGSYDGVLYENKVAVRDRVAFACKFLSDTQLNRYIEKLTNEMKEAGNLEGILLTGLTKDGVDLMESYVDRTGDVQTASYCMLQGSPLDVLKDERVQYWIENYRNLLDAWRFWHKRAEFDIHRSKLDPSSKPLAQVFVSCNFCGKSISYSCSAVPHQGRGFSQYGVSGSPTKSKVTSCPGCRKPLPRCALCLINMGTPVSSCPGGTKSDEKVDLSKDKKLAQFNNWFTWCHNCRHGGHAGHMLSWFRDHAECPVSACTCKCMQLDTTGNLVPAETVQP
Sestrin2-GATOR2 complex, sequence (Q6PJI9 whole entry partner, one chain of several): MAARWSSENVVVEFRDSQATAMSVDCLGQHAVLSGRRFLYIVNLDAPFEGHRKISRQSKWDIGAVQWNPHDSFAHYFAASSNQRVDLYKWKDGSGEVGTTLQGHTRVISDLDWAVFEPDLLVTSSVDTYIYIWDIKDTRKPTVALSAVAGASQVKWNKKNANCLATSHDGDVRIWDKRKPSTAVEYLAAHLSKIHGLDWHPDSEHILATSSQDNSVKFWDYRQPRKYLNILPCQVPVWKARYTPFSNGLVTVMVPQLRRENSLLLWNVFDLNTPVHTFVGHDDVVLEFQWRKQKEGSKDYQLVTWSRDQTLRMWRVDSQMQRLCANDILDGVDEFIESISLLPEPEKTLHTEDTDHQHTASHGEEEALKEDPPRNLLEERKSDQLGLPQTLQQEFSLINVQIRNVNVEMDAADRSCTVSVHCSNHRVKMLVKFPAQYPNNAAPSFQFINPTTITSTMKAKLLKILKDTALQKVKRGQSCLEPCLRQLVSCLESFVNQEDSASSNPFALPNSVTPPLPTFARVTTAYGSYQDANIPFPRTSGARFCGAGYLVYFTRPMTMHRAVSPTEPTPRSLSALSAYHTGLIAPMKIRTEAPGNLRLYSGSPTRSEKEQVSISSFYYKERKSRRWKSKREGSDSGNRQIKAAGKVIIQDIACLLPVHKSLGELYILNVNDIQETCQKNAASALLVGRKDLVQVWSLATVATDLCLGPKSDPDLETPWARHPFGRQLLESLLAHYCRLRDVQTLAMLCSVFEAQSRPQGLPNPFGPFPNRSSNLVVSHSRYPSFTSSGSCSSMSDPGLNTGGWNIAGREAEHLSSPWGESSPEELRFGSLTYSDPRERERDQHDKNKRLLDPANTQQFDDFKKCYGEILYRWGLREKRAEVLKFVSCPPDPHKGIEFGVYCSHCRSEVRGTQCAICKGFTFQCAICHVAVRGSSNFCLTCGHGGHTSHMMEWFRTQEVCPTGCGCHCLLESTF
Sestrin2-GATOR2 complex, sequence (Q96EE3 whole entry partner, one chain of several): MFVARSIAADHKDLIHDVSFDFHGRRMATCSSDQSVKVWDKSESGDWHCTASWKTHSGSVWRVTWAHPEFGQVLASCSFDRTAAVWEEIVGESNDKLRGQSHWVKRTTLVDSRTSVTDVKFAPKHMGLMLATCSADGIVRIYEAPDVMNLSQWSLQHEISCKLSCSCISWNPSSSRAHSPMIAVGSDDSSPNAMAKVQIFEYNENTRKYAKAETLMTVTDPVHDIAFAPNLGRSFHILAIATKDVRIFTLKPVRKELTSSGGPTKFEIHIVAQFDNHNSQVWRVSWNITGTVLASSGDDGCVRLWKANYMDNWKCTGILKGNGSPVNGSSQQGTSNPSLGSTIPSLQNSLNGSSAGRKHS
Sestrin2-GATOR2 complex, sequence (P55735 2-322 partner, one chain of several): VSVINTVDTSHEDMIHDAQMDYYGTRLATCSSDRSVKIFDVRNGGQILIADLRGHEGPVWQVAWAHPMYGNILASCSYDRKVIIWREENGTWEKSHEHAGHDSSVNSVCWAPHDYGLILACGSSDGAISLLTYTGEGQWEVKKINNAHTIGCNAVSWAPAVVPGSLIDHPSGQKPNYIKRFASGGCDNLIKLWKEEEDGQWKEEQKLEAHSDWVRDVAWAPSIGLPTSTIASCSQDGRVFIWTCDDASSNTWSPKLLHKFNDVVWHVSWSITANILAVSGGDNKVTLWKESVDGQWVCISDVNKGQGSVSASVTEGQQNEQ

SMILES	melting temperature shift (dTm) [1]	no appreciable binding (Sestrin2 (FLAG-Sestrin2) [2])	very weak binding (Sestrin3)	[3H]Leucine binding, FLAG immunoprecipitate on beads (Sestrin1 (two isoforms))	no appreciable binding (Sestrin2 (FLAG-Sestrin2) [3])	[3H]Leucine binding, FLAG immunoprecipitate on beads (Sestrin2 (FLAG-Sestrin2) [4])	disruption of immunopurified Sestrin2-GATOR2 complex, immunoblot (Sestrin2-GATOR2 complex)
CC(C)C[C@H](N)C(=O)O [leucine]	up to 8.5 °C	L261A and E451A, which do not bind leucine to an appreciable degree	Sestrin3 bound very weakly	Sestrin1 bound leucine to a similar extent as did Sestrin2	L261A and E451A, which do not bind leucine to an appreciable degree	Sestrin2 mutant (S190W) that still binds leucine	
CC(C)[C@H](N)C(=O)O [valine]							methionine, isoleucine, and valine– had any effect on the Sestrin2-GATOR2 interaction in vitro
